Assay results reported in paper PMC12631912, “A Multifunctional Molecular Probe for Multimodal Imaging‐Guided Potent Photothermal/Photodynamic Therapy of Endometriosis” (Advanced Science, 2025).

Key:
[1] = test system: EMS lesions; test: In vivo T1-weighted MRI of EMS lesions; design: species or system Wistar female rats; settings: EMS rats, 4.5 mg Gd per kg i.v., 30 min and 5 h post-injection, 3.0 T
Experimental: Prior to the imaging procedure, the rats were anesthetized through intraperitoneal injection of 1% sodium pentobarbital at a dosage of 45 mg kg^−1. Following anesthesia, the rats were positioned inside a 3.0 T MRI scanner sourced from the First Hospital of Sun Yat‐sen University.
Prior to drug administration, the rats underwent T 1‐weighted imaging using the fast spin‐echo sequence with the following parameters: TR = 400 ms; TE = 12 ms; FOV = 80 mm × 80 mm; matrix size = 672 × 672; voxel size = 0.24 mm × 0.24 mm; slice thickness = 1 mm; flip angle = 150°; and NSA = 5.
T 1‐weighted imaging using the fast spin‐echo sequence was repeated at 30 min and 5 h post‐injection, respectively, with adjusted parameters: TR = 425 ms; TE = 12 ms; FOV = 80 mm × 80 mm; matrix size = 384 × 384; voxel size = 0.42 mm × 0.42 mm; slice thickness = 1 mm; flip angle = 150°; and NSA = 7.

[2] = test system: EESCs; test: Intracellular ROS generation, DCFH-DA, flow cytometry; type: cell-based, human; settings: C ICG = 20 µg mL^−1, 4 h, + laser (808 nm, 1.0 W cm^−2, 5 min)
Experimental: (§1) DCFH‐DA was utilized to evaluate the intracellular ROS production induced by molecular probes under laser irradiation. Specifically, the cells (1 × 10^4 per well) were seeded onto confocal dishes and incubated overnight at 37 °C. […] Following this, the cells were carefully rinsed three times with fresh PBS. Subsequently, the cells were irradiated with an 808 nm laser (1.0 W cm^− ^2, 5 min). Intracellular ROS levels were then visualized and analyzed using a CLSM.
(§2) Additionally, a quantitative assessment of intracellular ROS production was performed using flow cytometry under the same conditions as the above experimental conditions. […] The cells were then trypsinized and harvested. After exposure to an 808 nm laser (1.0 W cm^− ^2, 5 min), the collected cells were analyzed on an Attune NxT flow cytometer (Invitrogen, USA). The resulting data was analyzed with NovoExpress 1.4.0 software (Agilent, USA).

[3] = test system: endometriotic lesions; test: In vivo anti-EMS efficacy, autologous transplantation model; design: species or system Wistar female rats; settings: EMS rats, i.v. every 3 days, six times, 808 nm 1.0 W cm^−2 10 min 1 h post-administration; n = 4
Experimental: (§3) Mice were injected with different formulations via the tail vein every 3 days until euthanasia, with an ICG dose of 3 mg kg^−1. For groups receiving NIR laser irradiation, the procedure was conducted 1 h post‐administration with a power of 1.0 W cm^− ^2 for 10 min. Mouse body weights were recorded every 3 days, and xenograft growth was monitored using a vernier caliper. EMS rats (n = 4) underwent the same treatment strategy after 28 days of autotransplantation, with body weight changes monitored every 3 days. After 18 days of treatment, rats were euthanized for autograft size measurement. Nude mice were euthanized after 18 days for graft extraction, followed by H&E staining and TUNEL assay. Briefly, sections were deparaffinized, hydrated, stained with H&E, and visualized under an optical microscope.

[4] = ROS generation in solution with DPBF indicator under 808 nm laser; type: physicochemical; settings: C ICG = 10 µg mL^−1 in methanol, DPBF absorbance at 410 nm, 808 nm laser 1.0 W cm^−2, within 10 min
Experimental: The generation of ROS was quantified using DPBF as a probe. […] The gradual decrease in the UV absorption of DPBF was monitored using a UV–vis spectrophotometer, and the correlation between the UV absorbance values and the laser exposure time was recorded.

[5] = Photothermal heating and photothermal conversion efficiency of probe solutions; type: physicochemical; settings: for temperature elevation of solution: 808 nm laser, 1.0 W cm^−2, 5 min
Experimental: Subsequently, a digital thermographic camera (Fluke Ti27, IR Fusion Technology, USA) was used to capture infrared thermal images and measure temperatures. The relationship between temperature values and laser irradiation duration was recorded using AnalyzIR software (4.0.0). […] The PCE (η) was subsequently calculated based on these measurements.^[ [41] ^]

[6] = test system: Ishikawa cells; test: In vitro photothermal/photodynamic therapy, CCK-8 viability after laser; type: cell-based; settings: CCK-8, 2 h incubation, 808 nm, 1.0 W cm^−2, 5 min, concentration of the quoted value not stated (range 2.5 to 50 µg mL^−1 ICG), mean ± SD, n = 4
Experimental: (§4) Ishikawa cells and EESCs were seeded in a 96‐well plate at a density of 1 × 10^4 cells per well and allowed to adhere overnight. […] Following this incubation, the cells were irradiated with an 808 nm laser (1.0 W cm^−2, 5 min). The viability of cells was measured using the CCK‐8 assay.

[7] = test system: Ishikawa cells; test: Intracellular ROS generation, DCFH-DA, flow cytometry; type: cell-based; settings: C ICG = 20 µg mL^−1, 4 h, + laser (808 nm, 1.0 W cm^−2, 5 min)
Experimental: as §1, §2

[8] = test system: EESCs; test: In vitro photothermal/photodynamic therapy, CCK-8 viability after laser; type: cell-based, human; settings: CCK-8, 2 h incubation, 808 nm, 1.0 W cm^−2, 5 min, concentration of the quoted value not stated (range 2.5 to 50 µg mL^−1 ICG), mean ± SD, n = 4
Experimental: as §4

[9] = test system: endometriotic lesions; test: In vivo anti-EMS efficacy, xenograft model; design: species or system BALB/c nude mice; settings: xenograft EMS nude mice
Experimental: As shown in previous references,^[ [19] ^] to establish a xenograft EMS model in nude mice, female BALB/c nude mice (5‐6 weeks, 18‐20 g) served as recipients, and female Sprague–Dawley rats (7‐9 weeks, 200–240 g) with regular 4–5 days estrous cycles were selected as donors after a week of acclimatization. Prior to surgery, nude mice received daily intramuscular β‐estradiol 17‐pentanoate (0.25 µg g^−1) for 3 days. The EMS model was induced by subcutaneous transplantation of ≈40 mg of rat uterine fragments into nude mice. The uterine horns from euthanized donors were sterilely collected, bisected, minced, and suspended in DMEM/F12 medium before injection. Nude mice then received β‐estradiol 17‐pentanoate (0.25 µg g^−1) injections every 2 days, and endometriotic lesions reaching 100 mm^3 were used for subsequent experiments.
as §3
TUNEL staining was performed following the instructions provided in the FITC TUNEL Cell Apoptosis Detection Kit (G1501, Servicebio, Wuhan). Paraffin sections were dewaxed, hydrated, repaired with proteinase K, and permeabilized with Triton X‐100. After incubating with buffer at room temperature for 10 min, a reaction solution containing TdT enzyme, dUTP, and buffer (1:5:50 ratio) was added and incubated at 37 °C for 1 h. Nuclei were counterstained with DAPI for 10 min, followed by three 5 min PBS washes (pH 7.4) on a decolorizing shaker. The slides were then blocked with an anti‐fluorescence quenching blocker (G1401, Sevier, Wuhan). The slides were visualized under CLSM with DAPI (blue light, excited at 330–380 nm, emitted at 420 nm) and FITC (green light, excited at 465–495 nm, emitted at 515–555 nm).

Row | Substance | T 1-weighted signal intensity at the lesion site [1] | intracellular ROS, normalized fluorescence intensity (DCFH-DA) [2] [%] | inhibition of lesion growth, probe + laser [3] | reduction in DPBF absorbance (ROS generation) [4] | temperature elevation of solution ([5]; C ICG = 50 µg mL^−1 in PBS) | cell viability after laser irradiation [6] [%] | intracellular ROS, normalized fluorescence intensity (DCFH-DA) [7] [%] | cell viability after laser irradiation [8] [%] | H&E histology of ectopic lesions, probe + laser ([9]; after 18 days of treatment) | maximum temperature increase ([5]; 50 µg/mL, 1 W/cm², laser on/off, 5 photothermal cycles (Figure S12a)) | Photothermal conversion efficiency (PCE) ([5]; C ICG = 50 µg mL^−1 in PBS, 808 nm, 1 W/cm², calculated from heating and cooling curves) [%] | therapeutic efficacy, probe + laser ([9]; ICG 3 mg kg^−1 i.v. every 3 days, 808 nm 1.0 W cm^−2 10 min, 18 days, n = 5) | TUNEL assay of lesions, probe + laser ([9]; after 18 days of treatment)
1 | ICG‐lys‐DTPA@Gd [ILD] | no significant increase | 93.85 | superior efficacy in inhibiting lesion growth compared to the other groups | ~56% | ≈ 20 °C | 48.41 ± 1.74 | 88.54 | 55.35 ± 1.1 | pronounced graft growth suppression |  |  |  | 
2 | c(RGDyK)‐ICG‐lys‐DTPA@Gd (head to tail) [cRGD‐ILD, targeting theranostic probe integrating cRGD peptide, ICG fragment and DTPA@Gd complex] | notable enhancement | 96.99 | superior efficacy in inhibiting lesion growth compared to the other groups | ≈ 58% | ≈ 20 °C | 23.8 ± 1.36 | 94.2 | 30.27 ± 2.02 | pronounced graft growth suppression | ≈ 45 °C | 29.81 | outperformed the ILD + laser combination | peak apoptotic activity
